Assay [1] concerns the target alanyl aminopeptidase (APN) (Homo sapiens, UniProt P15144). Description: Inhibition of alanyl aminopeptidase enzymatic activity, fluorogenic substrate (Ala)2-rhodamine. The format is biochemical. The procedure:
(§1) The inhibition characteristics measured are referred to as IC-50 values or ID50 values (the lafter marked with “*”) for both enzymes. The enzymatic activity was determined by means of the fluorogenic substrates/products (Ala-Pro)2-rhodamine and (Ala)2-rhodamine.

Assay [2] has as its target dipeptidyl peptidase IV (DPIV) (Homo sapiens, UniProt P27487). Description: Inhibition of dipeptidyl peptidase IV enzymatic activity, fluorogenic substrate (Ala-Pro)2-rhodamine. The format is biochemical. The method, then: as §1
The test system of assay [3] is dextran sulfate-induced colitis. Briefly: Dextran sulfate-induced colitis of mice. It counts as in vivo, female Balb/c mice. The following applies: 10 μg single inhibitor i.p. on three successive days from day 5; day 7; insignificant; FIG. 2.
In assay [4] the test system is ovalbumine-induced asthma bronchiale. Description: Ovalbumine-induced asthma bronchiale of mice. It counts as in vivo, female Balb/c mice. The following applies: i.p. 0.1 mg of each inhibitor, days 28-35; ovalbumine challenge day 35; FIG. 3A. The method, then:
Female Balb/c mice were sensitized for the antigen ovalbumine capable of inducing asthma bronchiale by an intreperitoneal administration of 10 μg ovalbumine on the days 0, 14 and 21. On day 27/28, the animals received a boostering dose of ovalbumine by inhalation [vD3]. After an intreperitoneal administration of the peptidase inhibitors on the days 28-35, there was effected an intranasal ovalbumine challenge on day 35, as well as a check of the allergic premature reaction via the pulmonal function. There were measured: the average expiratory flux (EF50), the tidal volume, the respiration rate and the minute volume as well as the number of eosinophilic granulocytes in the bronchoalveolar lavage. 8 to 10 animals were used per experimental group. By way of example, in FIG. 3A, there is summarized the effect of the peptidase inhibitors on the reduction of the EF50 value.

Where [5] appears, read: second value of cell DPIV/APN, marked * = ID50 value, read-out: ID50 APN (marked with *).
Setting [6] is: first value of cell DPIV/APN, unmarked = IC-50, read-out: IC50 DPIV.
Setting [7] is: second value of cell DPIV/APN, unmarked = IC-50, read-out: IC50 APN.
Setting [8] is: Table 8, first value of cell, unmarked = IC-50, read-out: IC50 DPIV.

The record followed here is patent US8263636B2, “Dual alanyl aminopeptidase and dipeptidyl peptidase iv inhibitors for functionally influencing different cells and for treating immunological inflammatory, neuronal and other diseases” (IMTM GmbH, priority 2003, dated 2012).

Where two headings read alike, the source gives them in different places.

Sequence of alanyl aminopeptidase (APN) (P15144 whole entry, species assumed): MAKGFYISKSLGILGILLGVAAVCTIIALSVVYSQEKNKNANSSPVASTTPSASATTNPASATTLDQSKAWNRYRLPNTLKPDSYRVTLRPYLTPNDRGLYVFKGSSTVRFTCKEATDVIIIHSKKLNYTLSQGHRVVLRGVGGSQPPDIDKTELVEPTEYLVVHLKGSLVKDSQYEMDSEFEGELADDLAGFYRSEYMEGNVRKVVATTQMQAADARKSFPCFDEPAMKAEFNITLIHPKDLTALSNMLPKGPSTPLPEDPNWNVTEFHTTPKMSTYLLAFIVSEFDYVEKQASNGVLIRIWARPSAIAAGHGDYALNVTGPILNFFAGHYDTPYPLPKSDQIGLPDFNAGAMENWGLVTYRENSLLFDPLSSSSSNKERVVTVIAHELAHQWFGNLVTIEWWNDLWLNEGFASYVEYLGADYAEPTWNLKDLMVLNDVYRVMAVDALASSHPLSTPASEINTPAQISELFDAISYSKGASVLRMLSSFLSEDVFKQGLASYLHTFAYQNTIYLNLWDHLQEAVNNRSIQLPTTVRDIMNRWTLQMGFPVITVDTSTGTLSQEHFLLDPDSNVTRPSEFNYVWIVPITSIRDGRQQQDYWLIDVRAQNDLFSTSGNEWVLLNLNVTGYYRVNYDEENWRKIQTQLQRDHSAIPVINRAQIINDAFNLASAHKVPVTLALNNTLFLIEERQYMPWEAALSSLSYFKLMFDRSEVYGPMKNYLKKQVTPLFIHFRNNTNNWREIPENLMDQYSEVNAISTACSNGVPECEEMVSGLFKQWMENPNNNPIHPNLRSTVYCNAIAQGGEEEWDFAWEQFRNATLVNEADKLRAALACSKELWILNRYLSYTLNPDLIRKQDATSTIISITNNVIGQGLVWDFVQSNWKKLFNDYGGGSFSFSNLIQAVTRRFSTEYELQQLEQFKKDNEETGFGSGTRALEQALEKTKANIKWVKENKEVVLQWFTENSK
Sequence of dipeptidyl peptidase IV (DPIV) (P27487 whole entry, species assumed): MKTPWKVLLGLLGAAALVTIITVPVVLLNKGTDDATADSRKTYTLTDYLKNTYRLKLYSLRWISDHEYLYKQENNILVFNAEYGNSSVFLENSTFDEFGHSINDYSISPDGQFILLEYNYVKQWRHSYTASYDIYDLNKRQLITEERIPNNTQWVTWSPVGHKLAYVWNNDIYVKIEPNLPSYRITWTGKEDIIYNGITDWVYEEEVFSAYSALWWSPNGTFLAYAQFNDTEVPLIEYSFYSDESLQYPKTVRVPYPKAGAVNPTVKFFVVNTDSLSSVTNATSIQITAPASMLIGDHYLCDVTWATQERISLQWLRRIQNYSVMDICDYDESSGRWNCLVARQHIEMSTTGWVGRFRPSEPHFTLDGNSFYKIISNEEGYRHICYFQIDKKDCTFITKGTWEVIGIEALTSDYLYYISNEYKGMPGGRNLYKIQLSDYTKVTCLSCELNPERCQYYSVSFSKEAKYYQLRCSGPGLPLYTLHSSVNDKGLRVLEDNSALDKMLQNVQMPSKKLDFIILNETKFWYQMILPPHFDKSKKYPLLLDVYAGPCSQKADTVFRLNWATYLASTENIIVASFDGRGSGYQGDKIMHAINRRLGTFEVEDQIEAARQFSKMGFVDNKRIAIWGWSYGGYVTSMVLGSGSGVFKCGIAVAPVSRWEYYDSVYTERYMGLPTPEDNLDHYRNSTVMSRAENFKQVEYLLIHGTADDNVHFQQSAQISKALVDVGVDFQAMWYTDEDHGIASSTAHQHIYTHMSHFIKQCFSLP

For the compound `COc1cc(Br)c(OCC(=O)N/N=C/c2cc(Br)c(O)c(O)c2Br)c(Br)c1` [Compound C2.003], the IC50 in assay [1] (setting [5]) was 5.4 µM.

Turning to `COc1ccc(OCC(=O)N/N=C/c2cc(Br)c(O)c(O)c2Br)c(Br)c1` [Compound C2.005], the IC50 in assay [2] (setting [6]) worked out at 40.8 µM.

For `Cc1ccc(C)n1-c1cccc(C(=O)N/N=C/c2cc(Br)c(O)c(Br)c2)c1` [Compound C2.007], the IC50 in assay [2] (read-out: IC50 DPIV) is 41.1 µM. For `Cc1ccc(/C=N/NC(=O)c2cccc(I)c2)o1` [Compound C2.010], in assay [2] (read-out: IC50 DPIV), the IC50 turned out to be 57.4 µM.

For the compound `COc1ccc(C(=O)N/N=C/c2cc(O)c(O)c(Br)c2Br)cc1` [Compound C2.012], the IC50 in assay [1] (setting [5]) came out at 33.6 µM.

As to `COc1ccc(C(=O)N/N=C\c2cc(Br)c(O)c(O)c2Br)cc1` [Compound C2.013], in assay [2] (first value of cell DPIV/APN, marked * = ID50 value, read-out: ID50 DPIV (marked with *)), the IC50 came to 94 µM. In the case of `Cc1[nH]c2ccccc2c1C(c1cc(Cl)ccc1O)N1CCOCC1` (centres unmarked) [Compound C4.002], the IC50 in assay [1] (setting [7]) came to 11.8 µM. Take `O=C(N/N=C/c1cc(Br)cc(Br)c1OC(=O)c1ccccc1)/C(=C/c1ccc2c(c1)OCO2)NC(=O)c1ccccc1` [Compound C4.006]: the IC50 in assay [2] (setting [6]) came out at 38.6 µM.

For the compound `CCOC(=O)C1CCN(C(c2ccccn2)c2c(C)[nH]c3ccccc23)CC1` (centres unmarked) [Compound C4.007], the IC50 in assay [2] (setting [6]) and in assay [1] (setting [7]) was 32 µM each time. For the compound `Cc1[nH]c2ccccc2c1C(c1ccccn1)N1CCN(c2ccccn2)CC1` (centres unmarked) [Compound C4.008], the values for the IC50 in assay [2] (setting [6]) and in assay [1] (setting [7]) were 45 µM and 28 µM, respectively. On the same counts, the results for `Cc1[nH]c2ccccc2c1C(c1ccccn1)N1CCN(c2ccc(F)cc2)CC1` (centres unmarked) [Compound C4.009] are 96 µM and 76 µM. The like results for `Cc1[nH]c2ccccc2c1C(c1ccccn1)N1CCC(C(N)=O)CC1` (centres unmarked) [Compound C4.010] were, in that order, 54 µM and 42 µM. Take `Cc1[nH]c2ccccc2c1C(c1ccccn1)N1CCCC1` (centres unmarked) [Compound C4.011]: the IC50 in assay [2] (setting [6]) amounted to 170 µM.

With `Cc1[nH]c2ccccc2c1C(c1ccccn1)N1CCOCC1` (centres unmarked) [Compound C4.012], the IC50 was 59 µM in assay [2] (setting [6]) and 36 µM in assay [1] (setting [7]). On the same counts, the results for `Cc1[nH]c2ccccc2c1C(c1ccccn1)N1CCCCC1` (centres unmarked) [Compound C4.013] are 74 µM and 78 µM. On the same counts, the results for `Cc1[nH]c2ccccc2c1C(c1cccs1)N1CCC(C(N)=O)CC1` (centres unmarked) [Compound C4.014] are 61 µM and 48 µM. Consider `CCOC(=O)N1CCN(C(c2cccs2)c2c(C)[nH]c3ccccc23)CC1` (centres unmarked) [Compound C4.015], for which the IC50 in assay [2] (setting [6]) is 49 µM; in assay [1] (setting [7]) it was 25 µM. On the same counts, the results for `COc1ccc(C(c2c(C)[nH]c3ccccc23)N2CCCC2)cc1` (centres unmarked) [Compound C4.016] are 49 µM and 30 µM.

For `Cc1[nH]c2ccccc2c1C(c1cccs1)N1CCCCC1` (centres unmarked) [Compound C4.017], the IC50 in assay [2] (setting [6]) is 67 µM; in assay [1] (setting [7]), 31 µM. On the same counts, the results for `Cc1[nH]c2ccccc2c1C(c1cccs1)N1CCOCC1` (centres unmarked) [Compound C4.018] are 61 µM and 32 µM. For the compound `Cc1[nH]c2ccccc2c1C(c1cccs1)N1CCCC1` (centres unmarked) [Compound C4.019], the IC50 in assay [2] (setting [6]) amounted to 57 µM; in assay [1] (setting [7]), 35 µM. The like results for `CCOC(=O)C(NC(=O)c1cccc(Cl)c1)(Nc1ccccc1OC)C(F)(F)F` (centres unmarked) [Compound C7.001] were, in that order, 18.9 µM and 21.7 µM. As for `CCOC(=O)C(NC(=O)c1ccc(OC)cc1)(N1CCCC1=O)C(F)(F)F` (centres unmarked) [Compound C7.002], in assay [2] (setting [6]), the IC50 stood at 25.4 µM. With `CCOC(=O)C(NC(=O)c1ccc(OC)cc1)(N1CCOCC1)C(F)(F)F` (centres unmarked) [Compound C7.003], in assay [1] (setting [7]), the IC50 worked out at 90.2 µM.

For the compound `CCOC(=O)C(NC(=O)c1ccccc1)(N1CCOCC1)C(F)(F)F` (centres unmarked) [Compound C7.004], the IC50 in assay [1] (setting [5]) is 186 µM.

With `CN(C)CCNc1nc2c(c(=O)n(C)c(=O)n2C)n1Cc1ccccc1Cl` [Compound C8.002], the “IC50 APN” value in assay [1] (Table 8, second value of cell, unmarked = IC-50) is on record as 7.5/Inactive.

In the case of `COC(=O)C1=C(N)N2C(=O)CSC2=C(C(=O)OC(C)C)C1` [Compound C8.003], the IC50 in assay [2] (setting [8]) was determined as 10.8 µM. Still for that read-out and setting: the value for `C=CCN1C(=O)C(C#N)=C(C)/C(=C\c2ccc(-c3cc(C)c(C)cc3[N+](=O)[O-])o2)C1=O` [Compound C8.012] was 65.4 µM. On to `CCOC(=O)C(NC(=O)c1ccc(OC)cc1)(N1CCOCC1)C(F)(F)F` (centres unmarked) [Compound C8.017], for which the IC50 in assay [1] (Table 8, second value of cell, unmarked = IC-50, read-out: IC50 APN) stood at 90.2 µM. Regarding `O=C(N/C(=C\c1ccco1)C(=O)N1CCCC(CO)C1)c1ccccc1` (centres unmarked) [Compound C8.020], in assay [2] (Table 8, first value of cell, marked * = ID50 value, read-out: ID50 DPIV (marked with *)), the IC50 stood at 152 µM.

As for `COc1cc(C)[n+](OC(=O)N(C)C)c(C)c1` [Compound C8.021], the IC50 in assay [2] came to 119 µM. For `O=C(N/C(=C\c1ccco1)C(=O)N1CCCC(CO)C1)c1ccccc1` (centres unmarked) [Compound C9.006], the IC50 in assay [2] (setting [6]) was found to be 152 µM. The same measure, in the same setting: the value for `COC(=O)C1=C(N)N2C(=O)CSC2=C(C(=O)OC(C)C)C1` [Compound C10.003] was 10.8 µM. As to `COc1ccccc1N1C(=O)c2ccc(Oc3ccc(NC(=O)CCS(=O)(=O)c4ccc(C)cc4)cc3)cc2C1=O` [Compound C10.015], the IC50 in assay [2] (setting [6]) was 99.4 µM; in assay [1] (setting [7]) it was 26.7 µM. For `COc1ccc(N2C(=O)c3ccc(Oc4ccc(N5C(=O)c6ccc(C(=O)O)cc6C5=O)cc4)cc3C2=O)cc1` [Compound C12.001], the figures for the IC50 in assay [2] (setting [6]) and in assay [1] (setting [7]) were 20.6 µM and 14.8 µM, respectively. The like results for `COC(=O)C1=C(N)N2C(=O)CSC2=C(C(=O)OC(C)C)C1` [Compound C16.001] were, in that order, 10.8 µM and 6.9 µM.

With `CC(C)OC(=O)C1=C(N)N2C(=O)CSC2=C(C(=O)OC(C)C)C1` [Compound C16.007], the IC50 in assay [2] (setting [6]) came out at 79 µM; in assay [1] (setting [7]), 75 µM. `CCOC(=O)C1=c2s/c(=C\c3cccs3)c(=O)n2C(N)=C(S(=O)(=O)c2ccccc2)C1c1cccs1` (centres unmarked) [Compound C16.008]: in assay [2] (setting [6]), the IC50 was 139 µM. Turning to `COC(=O)C1=c2s/c(=C\c3cccc(OC)c3)c(=O)n2C(N)=C(S(=O)(=O)c2ccccc2)C1c1cccc(OC)c1` (centres unmarked) [Compound C16.009], the IC50 in assay [2] (setting [6]) stood at 140 µM.

On to `COC(=O)C1=c2s/c(=C\c3ccco3)c(=O)n2C(N)=C(S(=O)(=O)c2ccccc2)C1c1ccco1` (centres unmarked) [Compound C16.010], for which the IC50 in assay [1] (setting [7]) came out at 100 µM. On to `COC(=O)C1=c2s/c(=C\c3ccc(C)cc3)c(=O)n2C(N)=C(S(=O)(=O)c2ccccc2)C1c1ccc(C)cc1` (centres unmarked) [Compound C16.011], for which the IC50 in assay [2] (setting [6]) came out at 115 µM. In the case of `N[C@@H](CCCCNC(=O)OCc1ccc([N+](=O)[O-])cc1)C(=O)N1CCCC1` [Lys[Z(NO2)] pyrrolidide], the “reduction of the heaviness of the disease (score)” value in assay [3] is −12.3%. Moreover, the “effect on the reduction of the average expiratory flux (EF50)” value in assay [4] is reported as “showed a therapeutic effect”. The like results for `CCCCC[C@H](CC(=O)NO)C(=O)N[C@H](C(=O)N1CCC[C@H]1CO)C(C)C` [actinonine] were, in that order, −16.5% and “showed a therapeutic effect”.
